Results taken from US7935700B2, “Morpholine compound” (Mitsubishi Tanabe Pharma Corporation, priority 2004, dated 2011).
Structures can show the parent of a compound that is named as a salt. Where two headings read alike, the source gives them in different places.

Experiments:
[1] = target: T1, CCR3 (Homo sapiens, UniProt P51677); assay: Effect on intracellular calcium concentration in eosinophils upon CCL11 stimulation; type: cell-based; conditions: peripheral blood eosinophils of healthy subject, agonist CCL11 1.0 nmol/L, compound 3 min before stimulation, Fura-2 AM; read-out: IC50 (50% suppression of the increase in the intracellular calcium concentration)
T1 construct: Eosinophils separated from peripheral blood of healthy subject; endogenous in cells; host or cells: eosinophils separated from peripheral blood of healthy subject
T1 sequence (P51677 1-355): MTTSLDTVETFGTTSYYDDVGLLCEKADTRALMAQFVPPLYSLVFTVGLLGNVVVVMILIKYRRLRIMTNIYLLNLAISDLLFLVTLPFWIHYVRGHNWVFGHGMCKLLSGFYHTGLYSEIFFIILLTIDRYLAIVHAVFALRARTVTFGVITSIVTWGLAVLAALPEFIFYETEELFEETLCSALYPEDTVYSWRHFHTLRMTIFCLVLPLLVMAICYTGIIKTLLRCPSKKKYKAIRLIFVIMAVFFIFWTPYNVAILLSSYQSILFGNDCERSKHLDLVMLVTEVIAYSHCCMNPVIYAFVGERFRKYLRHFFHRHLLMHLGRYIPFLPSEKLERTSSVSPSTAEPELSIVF
Experimental: Effect on Intracellular Calcium Concentration
The effect of the compound of the present invention on intracellular calcium mobilization in peripheral blood eosinophils of healthy subject upon CCL11 stimulation was examined by the following method.
Eosinophils separated from peripheral blood of healthy subject were suspended in 0.5% bovine serum albumin-containing phosphate buffered saline, and incubated at 37° C. for 45 min in the presence of 5 μmol/L of Fura-2 AM (manufactured by DOJINDO LABORATORIES).
After incubation, the cells were washed 3 times with a measurement buffer (10 mmol/L HEPES, and 0.5% bovine serum albumin-containing hanks' balanced salt solution) to remove Fura-2 AM that was not incorporated into the cells.
Finally, the cells were adjusted to 1×10^6 cells/mL with the measurement buffer and preserved in a dark place until measurement. The intracellular calcium was measured using FDSS3000 manufactured by Hamamatsu Photonics K.K. In other words, the cell suspension (0.1 mL) loaded with Fura-2 AM was placed in a 96 well plate for measurement, the fluorescence intensity to the excitation light at wavelengths 340 nm and 380 nm was measured by FDSS3000, the ratio of the fluorescence intensity to the excitation light at these two wavelengths was determined, based on which the intracellular calcium concentration was calculated. As the agonist, used was CCL11 (1.0 nmol/L), which is a CCR3 selective ligand, and the antagonistic activity was determined as 50% suppression rate (IC50 value) of the increase in the intracellular calcium concentration, when eosinophils were treated with various concentrations of the compound of the present invention at 3 min before agonist stimulation.

[2] = test system: mouse ovalbumin (OVA) induced allergic and biphasic ear edema; assay: Antigen (OVA) induced allergic and biphasic ear edema model; type: in vivo; conditions: male BALB/c mice, oral once a day from 2 days before induction, 3 or 10 mg/kg tested
Experimental: 3: Effect on Antigen Induced Allergic and Biphasic Ear Edema Model
The in vivo effect of the compound of the present invention was examined using a mouse ovalbumin (OVA) induced allergic and biphasic ear edema model. The model was prepared according to the method of Sugawara et al. (Allergy & Clinical Immunology International, Supplement No. 2, P 785, 2000). In other words, male BALB/c mice were immunized by intraperitoneal injection with 10 μg of OVA and 1 mg of aluminum hydroxide gel (Alum). At 14 days after immunization, OVA (5 μg) were subcutaneously injected to the both ears of the mouse, whereby ear edema was induced. The thickness of the ears was measured using a dial sickness gauge immediately before subcutaneous injection and 1 and 24 hrs after subcutaneous injection of OVA. The compound of the present invention was suspended in a vehicle, 0.5% hydroxypropylmethyl cellulose solution, and orally administered at 3 mg/kg or 10 mg/kg once a day using an orally gavage needle from 2 days before ear edema induction.

[3] = ear thickness 1 hr after OVA, read-out: Dose that showed a significant suppressive action vs vehicle, Immediate phase
[4] = ear thickness 24 hrs after OVA, read-out: Dose that showed a significant suppressive action vs vehicle, Late phase

**Q.** For NC(=O)c1csc(SCCCC(=O)NC[C@H]2CN(Cc3ccc(Cl)c(Cl)c3)CCO2)n1 [Example 55, (2S)-4-(4-carbamoylthiazol-2-ylthio)-N-{[4-(3,4-dichlorobenzyl)morpholin-2-yl]methyl}butyramide hydrochloride], which IC50 [1] is on record?
**A.** 1.1 nM

**Q.** Which minimal effective dose [2, 3] does the source give for O=C(CSc1ncccn1)NC[C@H]1CN(Cc2ccc(Cl)c(Cl)c2)CCO1 [Example 146, (2S)-N-{[4-(3,4-dichlorobenzyl)morpholin-2-yl]methyl}-(pyrimidin-2-ylthio)acetamide] here?
**A.** 3 mg/kg

**Q.** And the minimal effective dose [2, 4]?
**A.** 3 mg/kg

**Q.** What about the IC50 [1] of the same compound?
**A.** 2.5 nM

**Q.** How did the IC50 [1] turn out when NC(=O)Cc1csc(SCC(=O)NC[C@H]2CN(Cc3ccc(F)c(F)c3)CCO2)n1 [Example 79, (2S)-[4-(carbamoylmethyl)thiazol-2-ylthio]-N-{[4-(3,4-difluorobenzyl)morpholin-2-yl]methyl}acetamide] was run?
**A.** 0.9 nM

**Q.** Which IC50 [1] does the source give for NC(=O)c1cncc(SCC(=O)NC[C@H]2CN(Cc3ccc(Cl)c(Cl)c3)CCO2)c1 [Example 207, (2S)-(3-carbamoylpyridin-5-ylthio)-N-{[4-(3,4-dichlorobenzyl)morpholin-2-yl]methyl}acetamide] here?
**A.** 2.4 nM

**Q.** How did the IC50 [1] turn out when NC(=O)Cc1cncc(SCC(=O)NC[C@H]2CN(Cc3ccc(Cl)c(Cl)c3)CCO2)n1 [Example 223, (2S)-[6-(carbamoylmethyl)pyrazin-2-ylthio]-N-{[4-(3,4-dichlorobenzyl)morpholin-2-yl]methyl}acetamide] was run?
**A.** 0.1 nM

**Q.** Which minimal effective dose [2, 3] does the source give for Nc1nnc(SCC(=O)NC[C@H]2CN(Cc3ccc(F)c(F)c3)CCO2)s1 [Example 125, (2S)-(5-amino-1,3,4-thiadiazol-2-ylthio)-N-{[4-(3,4-difluorobenzyl)morpholin-2-yl]methyl}acetamide] here?
**A.** 10 mg/kg

**Q.** And the minimal effective dose [2, 4]?
**A.** 3 mg/kg

**Q.** What about the IC50 [1] of the same compound?
**A.** 3.6 nM

**Q.** What does the source list for O=C(O)CCNC(=O)c1csc(SCC(=O)NC[C@H]2CN(Cc3ccc(Cl)c(Cl)c3)CCO2)n1 [Example 46, (2S)-{4-[(2-carboxyethyl)aminocarbonyl]thiazol-2-ylthio}-N-{[4-(3,4-dichlorobenzyl)morpholin-2-yl]methyl}acetamide hydrochloride]?
**A.** minimal effective dose [2, 3]: 10 mg/kg; minimal effective dose [2, 4]: 10 mg/kg; IC50 [1]: 3.1 nM

**Q.** Which minimal effective dose [2, 3] does the source give for Nc1nnc(SCC(=O)NC[C@H]2CN(Cc3cccc(Cl)c3)CCO2)s1 [Example 123, (2S)-(5-amino-1,3,4-thiadiazol-2-ylthio)-N-{[4-(3-chlorobenzyl)morpholin-2-yl]methyl}acetamide] here?
**A.** 10 mg/kg

**Q.** And the minimal effective dose [2, 4]?
**A.** 10 mg/kg

**Q.** What about the IC50 [1] of the same compound?
**A.** 2.6 nM

**Q.** For Cc1sc(SCC(=O)NC[C@H]2CN(Cc3ccc(Cl)c(Cl)c3)CCO2)nc1C(N)=O [Example 110, (2S)-(4-carbamoyl-5-methylthiazol-2-ylthio)-N-{[4-(3,4-dichlorobenzyl)morpholin-2-yl]methyl}acetamide], which IC50 [1] is on record?
**A.** 1.5 nM

**Q.** With CC(=O)c1cc2cc(SCC(=O)NC[C@H]3CN(Cc4ccc(Cl)c(Cl)c4)CCO3)ccc2oc1=O [Example 174, (2S)-(3-acetyl-2-oxo-2H-chromen-6-ylthio)-N-{[4-(3,4-dichlorobenzyl)morpholin-2-yl]methyl}acetamide] as the compound, how does the IC50 [1] read?
**A.** 16.2 nM

**Q.** For O=C(CSc1ccc(=O)[nH]n1)NC[C@H]1CN(Cc2ccc(F)c(F)c2)CCO1 [Example 198, (2S)-N-{[4-(3,4-difluorobenzyl)morpholin-2-yl]methyl}-(6-oxo-1,6-dihydropyridazin-3-ylthio)acetamide], which minimal effective dose [2, 3] is on record?
**A.** 10 mg/kg

**Q.** And the minimal effective dose [2, 4]?
**A.** 10 mg/kg

**Q.** And the IC50 [1]?
**A.** 3.9 nM

**Q.** Cc1sc(SCC(=O)NC[C@H]2CN(Cc3ccc(Cl)c(Cl)c3)CCO2)nc1C(=O)O [Example 109, (2S)-(4-carboxy-5-methylthiazol-2-ylthio)-N-{[4-(3,4-dichlorobenzyl)morpholin-2-yl]methyl}acetamide] was tested. Which IC50 [1] did it give?
**A.** 22.3 nM

**Q.** With O=C(CCCS(=O)(=O)C1CCCC1)NC[C@H]1CN(Cc2ccc(F)c(Cl)c2)CCO1 [Example 232, (2S)-4-(cyclopentanesulfonyl)-N-{[4-(3-chloro-4-fluorobenzyl)morpholin-2-yl]methyl}butyramide] as the compound, how does the IC50 [1] read?
**A.** 38.5 nM

**Q.** With O=C(CSc1nc(-c2nnn[nH]2)cs1)NC[C@H]1CN(Cc2ccc(Cl)c(Cl)c2)CCO1 [Example 59, (2S)-N-{[4-(3,4-dichlorobenzyl)morpholin-2-yl]methyl}-[4-(1H-tetrazol-5-yl)thiazol-2-ylthio]acetamide] as the compound, how does the IC50 [1] read?
**A.** 2.1 nM

**Q.** O=C(CSc1nc2cccnc2s1)NC[C@H]1CN(Cc2ccc(Cl)c(Cl)c2)CCO1 [Example 64, (2S)-N-{[4-(3,4-dichlorobenzyl)morpholin-2-yl]methyl}-([1,3]thiazolo[5,4-b]pyridin-2-ylthio)acetamide] was tested. Which minimal effective dose [2, 3] did it give?
**A.** 10 mg/kg

**Q.** And the minimal effective dose [2, 4]?
**A.** 3 mg/kg

**Q.** And the IC50 [1]?
**A.** 0.3 nM

**Q.** Which IC50 [1] does the source give for NC(=O)CNC(=O)c1csc(SCC(=O)NC[C@H]2CN(Cc3ccc(F)c(F)c3)CCO2)n1 [Example 115, (2S)-[4-(2-amino-2-oxoethyl)aminocarbonylthiazol-2-ylthio]-N-{[4-(3,4-difluorobenzyl)morpholin-2-yl]methyl}acetamide] here?
**A.** 2.6 nM

**Q.** CC(=O)Nc1nnc(SCC(=O)NC[C@H]2CN(Cc3ccc(Cl)c(Cl)c3)CCO2)s1 [Example 53, (2S)-(5-acetamino-1,3,4-thiadiazol-2-ylthio)-N-{[4-(3,4-dichlorobenzyl)morpholin-2-yl]methyl}acetamide] was tested. Which minimal effective dose [2, 3] did it give?
**A.** 3 mg/kg

**Q.** What about the minimal effective dose [2, 4] of the same compound?
**A.** 3 mg/kg

**Q.** What about the IC50 [1] of the same compound?
**A.** 5.3 nM

**Q.** NC(=O)c1csc(SCC(=O)NC[C@H]2CN(Cc3ccc(F)c(Cl)c3)CCO2)n1 [Example 112, (2S)-(4-carbamoylthiazol-2-ylthio)-N-{[4-(3-chloro-4-fluorobenzyl)morpholin-2-yl]methyl}acetamide] was tested. Which IC50 [1] did it give?
**A.** 0.9 nM

**Q.** For NC(=O)/C=C/c1csc(SCC(=O)NC[C@H]2CN(Cc3ccc(Cl)c(Cl)c3)CCO2)n1 [Example 71, (2S)-(E)-[4-(2-carbamoylethen-1-yl)thiazol-2-ylthio]-N-{[4-(3,4-dichlorobenzyl)morpholin-2-yl]methyl}acetamide], which IC50 [1] is on record?
**A.** 0.5 nM

**Q.** For NC(=O)Cc1csc(SCC(=O)NC[C@H]2CN(Cc3ccc(F)cc3)CCO2)n1 [Example 107, (2S)-[4-(carbamoylmethyl)thiazol-2-ylthio]-N-{[4-(4-fluorobenzyl)morpholin-2-yl]methyl}acetamide], which IC50 [1] is on record?
**A.** 2.5 nM

**Q.** For NC(=O)CNC(=O)c1ccc(SCC(=O)NC[C@H]2CN(Cc3ccc(Cl)c(Cl)c3)CCO2)cc1 [Example 40, (2S)-{4-[(2-amino-2-oxoethyl)aminocarbonyl]phenylthio}-N-{[4-(3,4-dichlorobenzyl)morpholin-2-yl]methyl}acetamide], which minimal effective dose [2, 3] is on record?
**A.** 3 mg/kg

**Q.** And the minimal effective dose [2, 4]?
**A.** 3 mg/kg

**Q.** What about the IC50 [1] of the same compound?
**A.** 2 nM
